Data on ten compounds can be found in ChEMBL document CHEMBL1201862, “PubChem BioAssay data set” (2004).

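Where inhibition never reached the appropriate level, the endpoint shown equals the highest concentration tested. Otherwise, values were interpolated linearly from a five-concentration, 48-hour dose response in 96-well plates. GI50: concentration for 50% inhibition of growth.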 Activity calls are given as the source filed them. Rule as the data show it: active = GI50 up to about 1.1 µM and inactive = higher.

Test systems include RPMI-8226; DU-145; SR; SF-268; HCT-116; OVCAR-3; HOP-62; MOLT-4; SNB-19; HL-60; NCI-H522; UACC-257; HCC 2998; 786-0; NCI/ADR-RES; HOP-92; CCRF-CEM; EKVX; A498; T47D.
Test in all cases: inhibition of tumour cell growth, NCI panel, 48 h

Consider `COc1ccc2oc(=O)cc(C)c2c1`, for which the GI50 in the assay with RPMI-8226, in the assay on DU-145, in the assay on SR, with SF-268, in the assay with HCT-116 and in the assay on OVCAR-3 was > 100 µM (inactive) in each case. Moreover, the GI50 in the assay on HOP-62, with MOLT-4, in the assay with SNB-19, with HL-60, in the assay on NCI-H522 and with UACC-257 was > 100 µM (inactive) each time. Further, the GI50 in the assay with HCC 2998 is > 100 µM (inactive); in the assay with 786-0, > 100 µM (inactive); in the assay on NCI/ADR-RES, > 100 µM (inactive); with HOP-92, > 100 µM (inactive); in the assay with CCRF-CEM it was > 100 µM (inactive); in the assay with EKVX it was 21 µM (inactive). Moreover, the GI50 in the assay on A498 is > 100 µM (inactive); in the assay with T47D it was 0.0733 µM (active).

For `CN(O)C(=O)/C=C/c1ccc(OCc2cccc(Cl)c2)cc1`, the GI50 in the assay with RPMI-8226 is 27.5 µM (inactive); in the assay with DU-145 it was 20.8 µM (inactive); in the assay with SR it was 7.06 µM (inactive); with SF-268, 23.9 µM (inactive); in the assay on HCT-116 it was 16.8 µM (inactive); with OVCAR-3, 38.6 µM (inactive). Moreover, the GI50 is 24.4 µM (inactive) with HOP-62; 8.77 µM (inactive) with MOLT-4; 42.5 µM (inactive) with SNB-19; 18 µM (inactive) in the assay on HL-60; 25.7 µM (inactive) with NCI-H522; 51.8 µM (inactive) with UACC-257. Further, the GI50 was 23.6 µM (inactive) in the assay on HCC 2998; 18.7 µM (inactive) in the assay with 786-0; 19.7 µM (inactive) in the assay on NCI/ADR-RES; 24.3 µM (inactive) with HOP-92; 8.26 µM (inactive) in the assay on CCRF-CEM; 26.5 µM (inactive) in the assay on EKVX. In addition, the GI50 was 17 µM (inactive) with A498 and 20.1 µM (inactive) in the assay on T47D.

As for `O=[N+]([O-])C1=Cc2c(O)ccc(O)c2C2OC=CC12` (stereo not given), the GI50 with RPMI-8226 is 34.1 µM (inactive); with DU-145 it was 26.4 µM (inactive); in the assay with SR it was 23 µM (inactive); with SF-268, 19.8 µM (inactive); in the assay on HCT-116, 15.9 µM (inactive); in the assay on OVCAR-3, 7.94 µM (inactive). Besides, the GI50 with HOP-62 was 18.3 µM (inactive); with MOLT-4, 3.6 µM (inactive); in the assay with SNB-19 it was 23.9 µM (inactive); in the assay with HL-60 it was 8.59 µM (inactive); in the assay with NCI-H522, 3.83 µM (inactive); with UACC-257, 15 µM (inactive). For the same compound, the GI50 was 27.4 µM (inactive) in the assay with HCC 2998; 17.9 µM (inactive) in the assay with 786-0; 19.2 µM (inactive) in the assay with NCI/ADR-RES; 22.3 µM (inactive) with HOP-92; 8.89 µM (inactive) with CCRF-CEM; 19.5 µM (inactive) with EKVX. Besides, the GI50 in the assay on A498 is 15.7 µM (inactive); in the assay with T47D it was 17.4 µM (inactive).

As for `O=C1O[C@H]2[C@H](O)[C@@H](OC(=O)c3cc(O)c(O)c4c3[C@@H]3C1=CC(=O)C(O)(O)C3(O)O4)[C@H](OC(=O)c1cc(O)c(O)c(O)c1)O[C@@H]2CO` (stereo not given in full) [FUROSIN], the GI50 is > 100 µM (inactive) in the assay on RPMI-8226; > 100 µM (inactive) with DU-145; 32.1 µM (inactive) with SR; 76.4 µM (inactive) with SF-268; 74.8 µM (inactive) in the assay on HCT-116; 33.2 µM (inactive) with OVCAR-3. The GI50 in the assay on HOP-62 is > 100 µM (inactive); in the assay with MOLT-4, > 100 µM (inactive); with SNB-19, > 100 µM (inactive); in the assay with HL-60, 28.2 µM (inactive); with NCI-H522 it was 45.4 µM (inactive); with UACC-257, > 100 µM (inactive). For the same compound, the GI50 in the assay on HCC 2998 is > 100 µM (inactive); with 786-0, > 100 µM (inactive); in the assay on NCI/ADR-RES, > 100 µM (inactive); with HOP-92 it was 42 µM (inactive); with CCRF-CEM it was 17.9 µM (inactive); in the assay with EKVX, > 100 µM (inactive). The GI50 in the assay with A498 and in the assay with T47D was > 100 µM (inactive) each time.

On to `COC1=CC(=O)C(C2CC(=O)c3c(O)cc(O)cc3O2)=CC1=O` (stereo not given), for which the GI50 with RPMI-8226 was 10.9 µM (inactive); in the assay on DU-145, 19 µM (inactive); in the assay with SR, 5.74 µM (inactive); with SF-268, 20.7 µM (inactive); in the assay on HCT-116, 16.1 µM (inactive); in the assay on OVCAR-3, 18.5 µM (inactive). Also, the GI50 with HOP-62 was 17.1 µM (inactive); in the assay on MOLT-4 it was 1.96 µM (inactive); in the assay on SNB-19, 25 µM (inactive); in the assay with HL-60, 2 µM (inactive); with NCI-H522, 15.4 µM (inactive); in the assay on UACC-257, 18.5 µM (inactive). In addition, the GI50 is 16.8 µM (inactive) with HCC 2998; 13.1 µM (inactive) in the assay on 786-0; 21.7 µM (inactive) with NCI/ADR-RES; 7.55 µM (inactive) with HOP-92; 0.658 µM (active) in the assay with CCRF-CEM; 16.6 µM (inactive) with EKVX. The GI50 was 29.9 µM (inactive) with A498 and 14.4 µM (inactive) in the assay with T47D.

On to `CC(C)(C)OC(=O)C(C1NC(C(=O)O)C(C)(C)S1)N1C(=O)c2ccccc2C1=O` (stereo not given), for which the GI50 in the assay on RPMI-8226, in the assay with DU-145, with SR, in the assay with SF-268, in the assay on HCT-116 and in the assay with OVCAR-3 was > 100 µM (inactive) in each case. The GI50 in the assay with HOP-62, in the assay on MOLT-4, in the assay on SNB-19, in the assay on HL-60, with NCI-H522 and in the assay on UACC-257 was > 100 µM (inactive) throughout. Moreover, the GI50 with HCC 2998, in the assay with 786-0, with NCI/ADR-RES, in the assay on HOP-92, in the assay with CCRF-CEM and in the assay on EKVX was > 100 µM (inactive) each time. In addition, the GI50 in the assay on A498 and in the assay with T47D was > 100 µM (inactive) throughout.

Take `CCOC(=O)c1nc2cc(Cl)ccc2[nH]c1=O`: the GI50 in the assay on RPMI-8226, with DU-145, in the assay on SR, with SF-268, in the assay with HCT-116 and in the assay on OVCAR-3 was > 100 µM (inactive) each time. Moreover, the GI50 in the assay with HOP-62, with MOLT-4, with SNB-19, with HL-60, with NCI-H522 and in the assay on UACC-257 was > 100 µM (inactive) throughout. Further, the GI50 with HCC 2998, in the assay on 786-0, in the assay on NCI/ADR-RES, with HOP-92, with CCRF-CEM and in the assay with EKVX was > 100 µM (inactive) throughout. For the same compound, the GI50 with A498 and in the assay on T47D was > 100 µM (inactive) throughout.

`CC[C@@]1(O)C(=O)OCc2c1cc1n(c2=O)Cc2c-1nc1ccc(O)cc1c2CC[Si](C)(C)C`: the GI50 in the assay with RPMI-8226 was 0.0131 µM (active); with DU-145, < 0.001 µM (active); in the assay on SR, < 0.001 µM (active); in the assay with SF-268 it was < 0.001 µM (active); in the assay with HCT-116, < 0.001 µM (active); with OVCAR-3, 0.0247 µM (active). For the same compound, the GI50 is < 0.001 µM (active) with HOP-62; < 0.001 µM (active) in the assay on MOLT-4; < 0.001 µM (active) with SNB-19; < 0.001 µM (active) in the assay on HL-60; 0.00291 µM (active) with NCI-H522; 0.00275 µM (active) with UACC-257. Moreover, the GI50 in the assay on HCC 2998 was 0.0174 µM (active); in the assay with 786-0, < 0.001 µM (active); in the assay on NCI/ADR-RES, 0.0489 µM (active); in the assay on HOP-92, 0.0682 µM (active); in the assay on CCRF-CEM it was < 0.001 µM (active); in the assay on EKVX, 0.041 µM (active). The GI50 was 0.00383 µM (active) in the assay with A498 and < 0.001 µM (active) with T47D.

Regarding `Clc1cc(Cl)cc(/C=N/C23CC4CC(CC(C4)C2)C3)c1`, the GI50 in the assay with RPMI-8226, in the assay on DU-145, in the assay with SR, with SF-268, with HCT-116 and with OVCAR-3 was > 10 µM (inactive) each time. Also, the GI50 with HOP-62, in the assay on MOLT-4, in the assay with SNB-19, in the assay with HL-60, in the assay with NCI-H522 and in the assay with UACC-257 was > 10 µM (inactive) throughout. Besides, the GI50 with HCC 2998, in the assay with 786-0, in the assay on NCI/ADR-RES, with HOP-92, in the assay on CCRF-CEM and in the assay on EKVX was > 10 µM (inactive) each time. For the same compound, the GI50 in the assay on A498 and with T47D was > 10 µM (inactive) throughout.

For the compound `CCCCCCCC1(N=[N+]=[N-])C(=O)c2ccccc2N(C)C1=O` (stereo not given), the GI50 was 56.1 µM (inactive) with RPMI-8226; > 100 µM (inactive) in the assay on DU-145; > 100 µM (inactive) in the assay with SR; 93.8 µM (inactive) in the assay on SF-268; 61 µM (inactive) with HCT-116; 49 µM (inactive) in the assay with OVCAR-3. In addition, the GI50 is > 100 µM (inactive) in the assay on HOP-62; > 100 µM (inactive) with MOLT-4; > 100 µM (inactive) in the assay on SNB-19; 54.1 µM (inactive) in the assay on HL-60; 64.9 µM (inactive) in the assay on NCI-H522; 57.8 µM (inactive) in the assay on UACC-257. The GI50 in the assay on HCC 2998 is > 100 µM (inactive); with 786-0 it was > 100 µM (inactive); with NCI/ADR-RES it was 35.6 µM (inactive); in the assay on HOP-92, 22.5 µM (inactive); with CCRF-CEM, 7.55 µM (inactive); in the assay with EKVX, > 100 µM (inactive). Also, the GI50 was > 100 µM (inactive) in the assay on A498 and 68.9 µM (inactive) with T47D.
